One assay deals with T1, JAK2 (Homo sapiens, UniProt O60674).
T1 construct: endogenous in cells; host or cells: Molt4 (ATCC CRL-1582) and Ramos (ATCC CRL-1596), mixed lysate 1:2
As to the kind of experiment: Kinobeads assay, JAK2. As to conditions: mixed Molt4/Ramos lysate, read-out: Inhibition values (IC50) JAK2. It is filed as binding. Put shortly: (§1)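 IC50s come from capture competition: compound at various concentrations versus an immobilized aminopyrido-pyrimidine ligand for kinases in 1:2 Molt4/Ramos lysate (10 mg/mL), 3 h in a cold room. Captured JAK-family kinases were measured by specific-antibody dot blot with Odyssey infrared detection.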

The next assay addresses T2, JAK3 (Homo sapiens, UniProt P52333).
T2 construct: endogenous in cells; host or cells: Molt4 (ATCC CRL-1582) and Ramos (ATCC CRL-1596), mixed lysate 1:2
T2 sequence (P52333 1-1124): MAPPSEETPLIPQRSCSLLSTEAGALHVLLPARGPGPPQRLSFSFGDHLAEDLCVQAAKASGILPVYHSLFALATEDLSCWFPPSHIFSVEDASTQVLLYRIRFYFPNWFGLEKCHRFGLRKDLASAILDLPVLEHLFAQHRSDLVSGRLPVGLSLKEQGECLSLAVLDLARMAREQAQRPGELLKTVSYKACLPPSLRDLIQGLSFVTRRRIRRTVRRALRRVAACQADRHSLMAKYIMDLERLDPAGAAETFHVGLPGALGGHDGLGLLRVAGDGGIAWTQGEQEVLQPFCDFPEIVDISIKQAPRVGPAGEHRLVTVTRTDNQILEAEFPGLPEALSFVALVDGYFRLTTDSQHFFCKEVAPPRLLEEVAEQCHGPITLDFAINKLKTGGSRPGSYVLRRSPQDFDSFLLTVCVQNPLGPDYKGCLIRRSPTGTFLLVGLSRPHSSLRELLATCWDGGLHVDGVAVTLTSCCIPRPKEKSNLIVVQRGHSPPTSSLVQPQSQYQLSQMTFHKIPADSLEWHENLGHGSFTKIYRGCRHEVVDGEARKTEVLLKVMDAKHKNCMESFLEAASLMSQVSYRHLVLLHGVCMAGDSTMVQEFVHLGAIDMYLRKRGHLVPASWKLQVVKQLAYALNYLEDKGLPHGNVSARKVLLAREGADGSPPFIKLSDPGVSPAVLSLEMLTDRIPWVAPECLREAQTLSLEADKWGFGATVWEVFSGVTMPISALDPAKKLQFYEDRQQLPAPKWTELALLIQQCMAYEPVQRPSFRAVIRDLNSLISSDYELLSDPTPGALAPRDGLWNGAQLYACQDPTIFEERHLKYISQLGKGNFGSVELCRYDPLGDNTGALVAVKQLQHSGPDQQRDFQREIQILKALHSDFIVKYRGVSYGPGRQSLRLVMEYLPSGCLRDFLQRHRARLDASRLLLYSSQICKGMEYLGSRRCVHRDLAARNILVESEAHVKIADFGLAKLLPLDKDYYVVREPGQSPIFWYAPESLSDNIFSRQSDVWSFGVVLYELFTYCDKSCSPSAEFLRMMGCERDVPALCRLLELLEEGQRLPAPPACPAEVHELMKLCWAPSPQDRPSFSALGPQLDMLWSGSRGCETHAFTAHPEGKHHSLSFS
Briefly: Kinobeads assay, JAK3. Format: binding. As to conditions: mixed Molt4/Ramos lysate, read-out: Inhibition values (IC50) JAK3. Put shortly:
as §1

T1 sequence (O60674 whole entry): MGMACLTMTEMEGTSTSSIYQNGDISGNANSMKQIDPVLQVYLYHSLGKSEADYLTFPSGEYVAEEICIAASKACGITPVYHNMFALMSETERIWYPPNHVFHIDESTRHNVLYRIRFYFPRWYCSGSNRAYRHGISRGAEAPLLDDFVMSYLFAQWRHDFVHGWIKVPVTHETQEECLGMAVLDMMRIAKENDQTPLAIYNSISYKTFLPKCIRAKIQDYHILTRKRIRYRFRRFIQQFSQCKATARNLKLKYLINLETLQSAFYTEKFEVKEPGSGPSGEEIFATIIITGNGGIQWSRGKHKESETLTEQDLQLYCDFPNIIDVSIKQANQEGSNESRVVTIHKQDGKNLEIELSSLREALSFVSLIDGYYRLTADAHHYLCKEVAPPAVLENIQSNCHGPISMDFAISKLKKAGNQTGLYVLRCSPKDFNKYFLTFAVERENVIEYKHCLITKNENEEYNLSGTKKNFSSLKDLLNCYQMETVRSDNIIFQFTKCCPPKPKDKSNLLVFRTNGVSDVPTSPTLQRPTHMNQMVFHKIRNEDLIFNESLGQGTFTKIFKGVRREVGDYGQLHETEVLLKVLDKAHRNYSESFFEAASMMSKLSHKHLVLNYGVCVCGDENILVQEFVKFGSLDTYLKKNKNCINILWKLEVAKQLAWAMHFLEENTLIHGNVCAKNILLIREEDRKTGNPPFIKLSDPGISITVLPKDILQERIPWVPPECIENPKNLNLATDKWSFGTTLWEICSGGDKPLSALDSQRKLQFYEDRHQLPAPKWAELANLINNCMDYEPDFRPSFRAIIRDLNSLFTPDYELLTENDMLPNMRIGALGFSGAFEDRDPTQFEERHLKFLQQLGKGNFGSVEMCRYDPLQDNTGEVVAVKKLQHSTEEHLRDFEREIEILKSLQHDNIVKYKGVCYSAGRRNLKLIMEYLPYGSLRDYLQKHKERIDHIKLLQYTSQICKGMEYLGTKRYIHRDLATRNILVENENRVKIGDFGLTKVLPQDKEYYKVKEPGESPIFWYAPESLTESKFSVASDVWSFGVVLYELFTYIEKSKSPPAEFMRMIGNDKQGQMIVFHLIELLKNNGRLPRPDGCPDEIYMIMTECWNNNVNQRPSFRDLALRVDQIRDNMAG

Take `Cn1cc(Nc2ncc(F)c(N[C@H](CO)c3ccccc3)n2)cn1` [Compound 3]: the IC50 (usually the point on the concentration scale where inhibition reaches its midpoint) was at least 10 µM on JAK2 and 0.1 to 1 µM at JAK3.
With `Cn1cc(Nc2ncc(Cl)c(N[C@H](CO)c3cccc(F)c3)n2)cn1` [Compound 85], the IC50 on JAK2 was 0.1 to 1 µM; on JAK3, under 0.1 µM.
With `OCCn1cc(Nc2ncc(Cl)c(N[C@H](CO)c3cccc(F)c3)n2)cn1` [Compound 86], the IC50 at JAK2 was 0.1 to 1 µM; at JAK3 it was under 0.1 µM.
For `NC(=O)Cn1cc(Nc2ncc(Cl)c(N[C@H](CO)c3cccc(F)c3)n2)cn1` [Compound 87], the figures for the IC50 at JAK2 and at JAK3 were 0.1 to 1 µM and under 0.1 µM, respectively.
For `OC[C@@H](Nc1nc(Nc2cn[nH]c2)ncc1Cl)c1cccc(F)c1` [Compound 88], the IC50 is 0.1 to 1 µM on JAK2 and under 0.1 µM on JAK3.
Taken in the same sequence, the figures for `CN(C)CCNC(=O)Cn1cc(Nc2ncc(Cl)c(N[C@H](CO)c3ccccc3)n2)cn1` [Compound 89] were 1 to 10 µM and under 0.1 µM.
In the same order, the values of `CN(C)CCCNC(=O)Cn1cc(Nc2ncc(Cl)c(N[C@H](CO)c3ccccc3)n2)cn1` [Compound 90] are 1 to 10 µM and under 0.1 µM.
Regarding `Cn1cc(Nc2ncc(Cl)c(N[C@H](CO)c3cccnc3)n2)cn1` [Compound 91], the IC50 at JAK2 was 1 to 10 µM; on JAK3, under 0.1 µM.
In the same order, the values of `OCCn1cc(Nc2ncc(Cl)c(N[C@H](CO)c3cccnc3)n2)cn1` [Compound 92] are 1 to 10 µM and under 0.1 µM.
For the compound `OCCn1cc(Nc2ncc(Cl)c(NC(CO)c3cccc(Br)c3)n2)cn1` (centres unmarked) [Compound 93], the half-maximal inhibitory concentration (IC50) at JAK2 lay within 1 to 10 µM; at JAK3, 0.1 to 1 µM.

For the origin of these results see patent US20140179664A1, “Heterocyclyl Pyrimidine Analogues As JAK Inhibitors” (Cellzome Limited, priority 2011, published 2014).
